{"source": "patent US20240238228A1", "about": "“COMPOSITIONS AND METHODS FOR TREATING ALLERGIES AND INFLAMMATORY CONDITIONS” (UNIVERSITY OF PITTSBURGH-OF THE COMMONWEALTH SYSTEM OF …, priority 2021, published 2024)", "type_in_all_cases": "cell-based, murine", "key": {"PMCs [1]": {"test_system": "PMCs", "assay": "Avidin / LAMP-1 surface staining of activated PMCs", "parameters": "percentage of LAMP-1^+ and avidin^+ PMCs: dose or concentration left out as unconfirmed", "method": "MCs were collected and washed with PBS containing 0.5% BSA and 0.1% sodium azide. Non-specific binding was inhibited using FcBlock (PBS with 2.0% goat serum and 0.25 mg/mL anti-CD16/32 (clone 2.4G2, BD Biosciences). Surface staining was done with anti-CD117 eFluor450 (clone 2B8, ThermoFisher), anti-FcεRI FITC (clone MAR-1, ThermoFisher) and anti-ABCA1 Alexa Fluor 647 (clone 5A1-1422, BioRad). Cells were washed with Wash Buffer (PBS with 0.5% BSA and 0.1% sodium azide). To detect differences in granulated proteins at the cell surface, IgE-loaded MCs were activated with DNP-HSA with or without NKA in Tyrode's Buffer for 30 min, washed with Wash Buffer then stained with Avidin Alexa Fluor488 (Invitrogen, Av488, 0.8 μg/5×10^5 cells) and anti-LAMP-1 PE (clone eBio 1D48, ThermoFisher). Data were acquired on either a LSRII or a Fortessa (BD BioSciences). Analysis was performed with FlowJo v10.4 (BD Biosciences)."}, "PMCs [2]": {"test_system": "PMCs", "assay": "IgE+Ag-activated PMCs: cytokine release (ELISA)", "parameters": "detectible levels of IL-10 / levels of IL-13: dose or concentration left out as unconfirmed", "method": "(§1) Mast cells were differentiated from murine bone marrow as has been described. In brief, marrow was expunged from the femurs and tibias of female mice. Cultures were maintained in complete MC/9 medium containing recombinant murine IL-3 (25 ng/mL, Peprotech) for 4-6 weeks prior to use. Peritoneal MCs (PMCs) were expanded from peritoneal washes with MC/9 medium supplemented with IL-3 (25 ng/mL) and SCF (Peprotech, 10 ng/mL) for 21 days. Purity of BMMCs and PMCs was confirmed to be greater than 95% (FIG. 8A). To initiate signaling via the FcεRI, MCs were loaded with IgE (1.0 μg/ml, clone SPE-7, Sigma) for a minimum of 1 h then crosslinked with dinitrophenyl-human serum albumin (DNP-HSA, 100 ng/mL or as indicated). NKA (either LifeTein (Summerset, NJ) or Phoenix Pharmaceuticals (Burlingham, CA)) stock solutions were prepared in tissue culture grade water (100 μM) and stored at −20° C. for a maximum of 30 days. Glyburide (Cayman Chemical) was prepared in DMSO then diluted in PBS. Calpain activity was detected from cell-free supernatants using the Calpain-Glo Protease Assay (Promega). Supernatants were incubated with substrate for 10 min prior to luminescent detection. In some experiments, glyburide or vehicle (0.1% DMSO) were added to cells 10 min prior to Ag. ELISA kits from eBioscience (IL-13), BioLegend, (TNF and IL-10) or RayBiotech (NKA) and used in accord with the manufacturer's recommendations."}, "BMMCs": {"test_system": "BMMCs", "assay": "IgE+Ag-activated BMMCs: cytokine release (ELISA) and RNA (RT-PCR)", "method": "as §1, with “-20°” for “−20°”, “recommendations. […] Total RNA was isolated from either MCs or murine ear tissue 3 h hours after NKA injection. Tissue was homogenized in Navy RINO tubes (Next Advance) in a Bullet Blender Storm (Next Advance). RNA was extracted per standard methods with Trizol (Invitrogen). cDNA was reversed transcribed with the Quantitech Reverse Transcription Kit (Qiagen). PCR products were amplified with Fast SybrGreen (ABI) on a StepOne Plus Cycler ([…]) using the following primers: TNF […] NO: 5), TNF […] NO: 6); IL13 […] NO: 7), IL13 […] NO: 8); IL10 […] NO: 9); IL10 […] NO: 10); Bactin […] NO: 11); Bactin […] NO: 12). Data are presented as 2^-ΔΔCT using f-actin as the housekeeping gene and normalizing to either untreated cells or naïve control mice.” for “recommendations.”"}, "calpain": {"test_system": "calpain", "assay": "Calpain activity in cell-free supernatants of activated BMMCs", "method": "Calpain activity was detected from cell-free supernatants using the Calpain-Glo Protease Assay (Promega). Supernatants were incubated with substrate for 10 min prior to luminescent detection. In some experiments, glyburide or vehicle (0.1% DMSO) were added to cells 10 min prior to Ag. ELISA kits from eBioscience (IL-13), BioLegend, (TNF and IL-10) or RayBiotech (NKA) and used in accord with the manufacturer's recommendations."}, "PMCs [3]": {"test_system": "PMCs", "assay": "β-hexosaminidase release from PMCs", "details": "incubated with NKA or activated with IgE and antigen in the presence of NKA", "method": "Mast cells (5×10^5-1×10^6) were loaded with IgE ([…]) for a minimum of 3 h in Tyrode's Buffer. Neurokinin A ([…]) was added with DNP-HSA (Sigma, as indicated or 100 ng/mL) for 40 min at 37 C. Cells and supernatants were collected, cell pellets were lysed in Tyrode's Buffer by freeze-thawing then incubated with p-nitrophenyl N-acetyl j-D-glucosaminide (EMB Millipore, 5 mM) dissolved in citrate buffer (0.04 M, pH 4.5) for 90 minutes. The enzymatic reaction was stopped with glycine (0.4 M, pH 10.7). Absorbance at 450 nm was read. The average percentage of b-hexosaminidase release from triplicate values was calculated as (ODsup/ODsup+ODlysate)×100(%)."}, "[4]": {"details": "control Mcpt5Cre^+×IL10^WT PMCs"}, "[5]": {"details": "IL-10 KO BMMCs (absence of autocrine IL-10)"}, "[6]": {"details": "overnight activation with IgE+Ag in the presence of NKA"}}, "data": [{"compound": "COc1ccc(Cl)cc1C(=O)NCCc1ccc(S(=O)(=O)NC(=O)NC2CCCCC2)cc1", "note": "[glyburide, reference compound]", "values": [{"measurement": "percentage of LAMP-1^+ and avidin^+ PMCs", "setting": "PMCs [1]; IgE-activated 30 minutes", "result": "reduced the percentage"}, {"measurement": "levels of TNF", "setting": "PMCs [2]; glyburide 50 mM, 20-24 h in culture", "result": "decreased"}, {"measurement": "detectible levels of IL-10", "setting": "PMCs [2]; glyburide, 20-24 h in culture", "result": "increased"}, {"measurement": "levels of IL-13", "setting": "PMCs [2]; glyburide, 20-24 h in culture", "result": "decreased"}, {"measurement": "NKA-mediated inhibition with added glyburide", "setting": "BMMCs; glyburide and NKA (1000 nM), BMMCs or PMCs, 20-24 h", "result": "did not further increase"}, {"measurement": "detectible levels of IL-10", "setting": "BMMCs; glyburide, 20-24 h in culture", "result": "increased"}, {"measurement": "levels of IL-13", "setting": "BMMCs; glyburide, 20-24 h in culture", "result": "decreased"}, {"measurement": "levels of TNF", "setting": "BMMCs; glyburide, 20-24 h in culture", "result": "decreased"}, {"measurement": "calpain activity", "setting": "calpain; increasing concentrations of glyburide 10 min prior to activation, supernatants 30 min after activation", "result": "reduced"}]}, {"compound": "Neurokinin A [NKA]", "values": [{"measurement": "percentage of avidin^+ and LAMP-1V PMCs", "setting": "PMCs [1]; 30 min after activation, compared to control", "result": "reduced the percentage"}, {"measurement": "IL-13 release", "setting": "PMCs [2]; [4]", "result": "inhibited"}, {"measurement": "TNF release", "setting": "PMCs [2]; [4]", "result": "inhibited"}, {"measurement": "effects of NKA on IL-13 and TNF release", "setting": "PMCs [2]; without PMC-derived IL-10 (Mcpt5Cre^+×IL10^fl/fl)", "result": "reversed"}, {"measurement": "IL10 RNA", "setting": "BMMCs; 60 min after activation", "result": "increased"}, {"measurement": "IL13 transcription", "setting": "BMMCs; 60 min after activation", "result": "inhibited"}, {"measurement": "TNF transcription", "setting": "BMMCs; 60 min after activation", "result": "inhibited"}, {"measurement": "IL-13 release", "setting": "BMMCs; [5]", "result": "did not inhibit"}, {"measurement": "TNF release", "setting": "BMMCs; [5]", "result": "did not inhibit"}, {"measurement": "IL-13 release", "setting": "BMMCs; [6]", "result": "inhibited"}, {"measurement": "TNF release", "setting": "BMMCs; [6]", "result": "inhibited"}, {"measurement": "IL-10 protein in supernatants", "setting": "BMMCs; overnight culture with NKA", "result": "significant increase"}, {"measurement": "β-hexosaminidase release", "setting": "PMCs [3]", "result": "no difference"}, {"measurement": "extracellular calpain activity", "setting": "calpain; IgE+Ag with or without NKA for 60 min", "result": "significantly downregulated"}]}]}
